# According to patent EP0568229A1, “Control of deposition of organic contaminants in pulp and papermaking systems” (BETZ EUROPE, INC., priority 1992, dated 1993):
# Read-outs that look alike come from different tables or passages of the source.
# Key:
# [1] = Stickie coupon peel strength test modified to examine the effect of dilution; conditions: Concen. 50 ppm; for 1st Dilution: 30 minutes in distilled water after the initial immersion; for No Dilution: Table X
# Description: In order to establish the efficacy of the materials used in the present invention as deposition control agents, on plastic surfaces and specifically for adhesive contaminants of the sort found in recycled fiber, a laboratory test was devised utilizing adhesive-backed tapes as stickie coupons. The stickie coupon can be fabricated from any type of adhesive tape that will not disintegrate when placed in water. For the study, tapes made from a styrenebutadiene rubber and vinylic esters were used. Both of these potential organic contaminants are known to cause problems "stickies" in secondary fiber utilization. A second coupon was fabricated from polyester film such as the product marketed as MYLAR by the DuPont Chemical Company. This material was chosen because papermachine forming fabrics are frequently made of polyester which is susceptible to considerable problem caused by stickies.
# 500 mL of solutions in 600 mL beakers containing various deposit control agents are placed in a water bath heated to 50 °C. The tape and the polyester film coupons are placed in the test solution so the adhesive side of the coupon faces away from the polyester film coupon. After 1 hour of immersion, the adhesive side of the stickie coupon is placed in contact with the polyester coupon and pressed to 1000 pound force.
# The average peel strength of the bond formed between the tape coupon and the polyester coupon was measured with an Instron tensile tester. The peel strength of the bond formed between the stickie tape coupon and the polyester coupon was interpreted as a measure of the tendency for an organic contaminant to attach to components of a paper-machine and cause runnability or product quality problems. More specifically, this indicates the tendency of a stickies deposit to form on a plastic surface.
# Papermaking consists of various processes which can be affected by sudden changes in pH, temperature, dilution (i.e., concentration), shear force, etc. Severe changes in these parameters can cause system shock which adversely impact paper production. Deposit control agents that can strongly adsorb onto the organic contaminant surface and resist the desorbing effects of dilution are highly desirable. Not only will deposition control be improved, but also the required dosage will be reduced, while negative side effects, such as forming and wet-end interferences, will be reduced or eliminated. The procedure outlined in Table VIII was modified to examine the effect of dilution on deposition control. Dilution was accomplished by immersing the adhesive tape and MYLAR in distilled water for 30 minutes after the initial immersion. This can be repeated as many times as desired.
# [2] = for % Control: Table IV; for Percent Control of Pitch: Table VI
# Method: The slurry contained 0.5% bleached hardwood Kraft fiber, approximately 2000 parts per million of the potassium salt of a fatty acid blend, approximately 200 parts per million calcium from calcium chloride and approximately 300 parts per million sodium carbonate. The slurry was maintained at 50 °C and at a pH of 11.
# It was stirred gently by an overhead stirrer and subjected to ultrasonic energy for 10 minutes. The deposit weight was determined by subtracting the starting weight of the pan from the weight of the pan plus the deposit after completion of the test. […] Studies of this type were conducted using hydrophobically modified associative polymers of the type described in this invention.
Substance,2nd Dilution [1],3rd Dilution [1],4th Dilution [1],1st Dilution [1],No Dilution [1],% Control ([2]; 10 ppm),Percent Control of Pitch ([2]; 10 ppm),% Control ([2]; 50 ppm),Percent Control of Pitch ([2]; 50 ppm)
octylphenoxy poly(ethyleneoxy)ethanol [Sample 1],0,0,0,5,100,–,–,–,–
dodecylphenoxypoly(ethyleneoxy) ethanol [Sample 3],16,5,0,34,100,–,–,–,–
nonylphenol ethoxylate [Sample 2],2,0,0,8,100,–,–,–,–
Nonyl Phenol Ethoxylate [Nonyl Phenol Ethoxylate (Surfonic N-95)],–,–,–,–,–,9%,9%,81%,81%
